For assay [1], the target named is T1, αB-crystalline (αB-C) (Homo sapiens, UniProt P02511).
T1 construct: purchased
T1 sequence (P02511 1-175): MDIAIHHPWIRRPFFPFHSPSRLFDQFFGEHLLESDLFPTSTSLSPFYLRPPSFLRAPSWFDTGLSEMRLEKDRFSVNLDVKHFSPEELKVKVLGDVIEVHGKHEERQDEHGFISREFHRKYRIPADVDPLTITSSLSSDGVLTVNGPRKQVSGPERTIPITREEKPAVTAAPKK
The experiment in a line: Surface plasmon resonance (Biacore 3000) affinity on αB-crystalline. Particulars: SPR at 25° C.; for Kd: read-out: Kd (M) on crystallin. In kind it is binding. Here is the method: (§1) Using the surface plasmon resonance technology (Biacore 3000), the interaction constants between HCQ analogues (HCQa) and myeloperoxidase (MPO) targets and αB-crystalline (αB-C) were measured at 25° C. according to 12 different series of experiments. First, HCQ analogues at five different concentrations (10^−6 to 10^−8 M) were injected at a rate of 10^−6 L/min for 250 s on the MPO and αB-C targets as well as on the ERK1 and ERK2 controls, followed by a dissociation phase of 150 s.
(§2) The kinetic parameters were measured using the BIAevaluation 4.1 software. The set of resonance unit values obtained with the controls were subtracted from those obtained with MPO and αB-C to compensate for non-specific bonds.
(§3) The differences in Kd values for the myeloperoxidase (MPO) and αB-crystalline (αB-C) enzymes in Tables 1 and 2 are due to the variability of commercial batches. Nevertheless, the difference between the Kd of the compounds HCQ and CB137 remains identical according to these two tests.
(§4) Analysis of the compounds in the form of sulphate salts according to the method described above: […]

Assay [2] has as its target T2, myeloperoxidase (MPO) (Homo sapiens, UniProt P05164).
T2 construct: purchased
T2 sequence (P05164 49-745): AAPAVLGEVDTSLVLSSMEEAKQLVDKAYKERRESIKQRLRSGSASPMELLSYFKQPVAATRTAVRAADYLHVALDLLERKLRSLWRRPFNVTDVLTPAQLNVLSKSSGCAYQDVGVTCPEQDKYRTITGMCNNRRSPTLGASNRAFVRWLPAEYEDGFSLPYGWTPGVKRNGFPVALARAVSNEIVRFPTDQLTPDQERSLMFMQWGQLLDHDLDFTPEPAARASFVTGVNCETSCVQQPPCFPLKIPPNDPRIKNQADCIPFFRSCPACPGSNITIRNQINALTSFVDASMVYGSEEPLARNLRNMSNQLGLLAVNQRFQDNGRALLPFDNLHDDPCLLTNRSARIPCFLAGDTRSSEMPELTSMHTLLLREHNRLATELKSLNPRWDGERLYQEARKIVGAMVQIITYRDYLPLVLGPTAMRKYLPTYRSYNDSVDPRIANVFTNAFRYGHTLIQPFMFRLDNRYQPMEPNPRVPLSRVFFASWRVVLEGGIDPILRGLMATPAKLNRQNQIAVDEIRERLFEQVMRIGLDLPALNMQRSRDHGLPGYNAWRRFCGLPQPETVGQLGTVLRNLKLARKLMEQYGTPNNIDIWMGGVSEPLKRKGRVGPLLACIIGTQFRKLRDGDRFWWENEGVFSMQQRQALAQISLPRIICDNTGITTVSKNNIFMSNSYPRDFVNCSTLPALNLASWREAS
The experiment in a line: Surface plasmon resonance (Biacore 3000) affinity on MPO. Format: binding. Particulars: SPR at 25° C. Here is the method:
as §1, §2, §3, §4
(In general: In SPR one partner is held on a chip, and binding of the other changes the refractive index at the surface.)

[3] abbreviates: Table 2, compounds in the form of sulphate salts.

Read-outs that look alike come from different tables or passages of the source.

One may read the Kd as the free concentration of one partner at which half of the binding sites on the other are occupied at equilibrium, for simple one-to-one binding. For `CCN(CCO)CCCC(C)Nc1ccnc2cc(Cl)ccc12` (single isomer, unassigned) [CB133], the Kd was determined as 2.19e-09 M in assay [1] (Table 1) and 711 nM in assay [2] (Table 1). Turning to `CCN(CCO)CCCC(C)Nc1c(C#N)cnc2cc(Cl)ccc12` (stereo not drawn) [CB029], the Kd is 3.5e-08 M in assay [1] (Table 1) and 71 nM in assay [2] (Table 1).

For the compound `CCN(CCO)CCCC(C)Nc1c(Cl)cnc2cc(Cl)ccc12` (stereo not drawn) [CB072], the Kd in assay [1] (Table 1) was found to be 1.6e-07 M; in assay [2] (Table 1), 1.1 nM. For `CCN(CCO)CCCC(C)Nc1c(C(=O)C2CC2)cnc2cc(Cl)ccc12` (stereo not drawn) [CB103], in that order: 6.6e-07 M and 36 nM. Consider `CCN(CCO)CCCC(C)Nc1c(C(F)(F)F)cnc2cc(Cl)ccc12` (stereo not drawn) [CB108], for which the Kd worked out at 8.1e-07 M in assay [1] (Table 1) and 14 nM in assay [2] (Table 1).

`CCN(CCO)CCCC(C)Nc1c(C(=O)C(F)(F)F)cnc2cc(Cl)ccc12` (stereo not drawn) [CB114]: the Kd in assay [1] (Table 1) was 2.2e-05 M; in assay [2] (Table 1), 60 nM. Consider `CCN(CCO)CCCC(C)Nc1ccnc2cc(Cl)cc(Cl)c12` (stereo not drawn) [CB300], for which the Kd worked out at 0.0002 M in assay [1] (setting [3]) and 4000 nM in assay [2] (setting [3]). Consider `CCN(CCO)CCCC(C)Nc1ccnc2c(Cl)c(Cl)ccc12` (stereo not drawn) [CB317], for which, in assay [2] (setting [3]), the Kd is 9000 nM.

For the compound `CCN(CCO)CCC[C@@H](C)Nc1ccnc2cc(Cl)cc(Cl)c12` [CB321 R-enantiomer], the Kd in assay [1] (setting [3]) stood at 1e-05 M; in assay [2] (setting [3]), 7000 nM. For `CCN(CCO)CCC[C@@H](C)Nc1c(Cl)cnc2cc(Cl)ccc12` [CB323 R-enantioer], in that order: 0.0002 M and 90 nM. For `CCN(CCO)CCCC(C)Nc1c(C2CC2)cnc2cc(Cl)ccc12` (stereo not drawn) [CB341], the Kd in assay [1] (setting [3]) is 2e-05 M; in assay [2] (setting [3]), 5000 nM. In the case of `CCOC(=O)c1cnc2cc(Cl)ccc2c1NC(C)CCCN(CC)CCO` (stereo not drawn) [NT36F9], in assay [1] (Table 1), the “Kd (M) on crystallin” value is listed as “Kd not measurable because below the detection threshold”. Further, in assay [2] (Table 1), the Kd was 7.5 nM. Turning to `C#CCOCc1cnc2cc(Cl)ccc2c1NC(C)CCCN(CC)CCO` (stereo not drawn) [NT69], the “Kd (M) on crystallin” value in assay [1] (Table 1) was “Kd not measurable because below the detection threshold”.

These data come from patent US10647677B2, “Analogues of hydroxychloroquine (HCQ) without retinal toxicity” (Inoviem Scientific, priority 2015, dated 2020).
